Reference: publication PMC8248988, “A signal capture and proofreading mechanism for the KDEL-receptor explains selectivity and dynamic range in ER retrieval” (eLife, 2021)
Ends that are not written are not given here.

How the values were obtained:
[1] = target: T1, human KDELR1 (Homo sapiens, UniProt P24390); experiment: ER retrieval assay, WT KDELR1-GFP; assay type: cell-based; conditions: COS-7 cells, WT human KDEL receptor-GFP with mScarlet ligand
T1 construct: expressed in transfected cells; host or cells: COS-7
Source text: To create KDELR1-GFP and KDELR2-GFP, the reading frames for Homo sapiens KDELR1 (Uniprot: P24390) and KDELR2 (Uniprot: P33947) were cloned into the pEF5/FRT low level mammalian expression vector with a C-terminal 20 amino acid linker made up of 5 copies of Gly-Ser-Ser-Ser followed by GFP. Specific point mutations were introduced using the Quickchange protocol (Stratagene) and are described in the key resources table and figures. To create the mScarlet-KDEL^sec ligand construct, mScarlet with an N-terminal hGH signal peptide and the 16 C-terminal residues of human BiP at its C-terminus, containing the KDEL signal, was cloned into the pcDNA3.1 vector. […] The Golgi marker protein TGN46 was detected by antibody (sheep anti-TGN46 AHP500G; AbD Serotec) and an Alexa 647 conjugated secondary anti-sheep secondary (A-21448, Invitrogen). In Figure 1d and e, endogenous KDELR was detected by antibody (mouse anti-KDELR ADI-VAA-PT048; Enzo Life Sciences) and Alexa 488 conjugated anti-mouse secondary antibody (A-21202, Invitrogen). For retrieval assays in other figures, KDELR-GFP fusion proteins were directly detected by fluorescence. The mScarlet-xDEL fusion proteins were directly detected by fluorescence. […] The fraction of KDEL receptor in the Golgi apparatus was calculated by dividing the Golgi signal by the total cell signal. […]

[2] = target: T2, chicken KDELR2 (Gallus gallus, UniProt Q5ZKX9); experiment: Competition binding assay, [3H]-TAEHDEL against unlabelled peptide; conditions: for IC50: competition with [3H]-TAEHDEL, free (COOH) or amidated (CONH) C-terminus, pH 5.4, read-out: Competitor peptide IC50
T2 construct: GFP (of the pDDGFP vector); made in house; host or cells: Saccharomyces cerevisiae Bj5460
T2 sequence (Q5ZKX9 1-212): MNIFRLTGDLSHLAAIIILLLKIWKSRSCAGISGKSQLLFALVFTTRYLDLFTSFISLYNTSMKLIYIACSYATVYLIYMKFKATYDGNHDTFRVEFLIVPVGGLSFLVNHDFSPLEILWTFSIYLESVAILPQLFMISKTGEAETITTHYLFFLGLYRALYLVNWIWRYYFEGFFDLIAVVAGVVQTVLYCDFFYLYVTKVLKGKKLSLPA
Source text: (§1) Figure 1. ER retrieval signal abundance and affinity are not correlated. (a) Sequence logos for ER resident proteins with C-terminal KDEL retrieval signals and variants thereof calculated using frequency or protein abundance ([Itzhak et al., 2017]; [Itzhak et al., 2016]). (b) Combined cellular concentrations of ER resident proteins with canonical KDEL, RDEL, and HDEL retrieval sequences in HeLa cells and mouse brain. (c) Competition binding assays for [^3H]-TAEHDEL and unlabelled TAEKDEL, TAERDEL, and TAEHDEL to the KDEL receptor. IC50 values for the competing peptides were used to calculate the apparent KDwith the Cheng-Prusoff equation ([Cheng and Prusoff, 1973]). (d) Endogenous KDEL receptor redistribution was measured in COS-7 cells in the absence (-ligand) or presence of K/R/H/A/DDEL (mScarlet-xDEL^sec). TGN46 was used as a Golgi marker. Scale bar is 10 µm. (e) The mean difference for K/R/H/A/DDEL comparisons against the shared no ligand control are shown as Cummings estimation plots. The individual data points for the fraction of KDEL receptor fluorescence in the Golgi are plotted on the upper axes with sample sizes and p values. Figure 1—source data 1. Source data for the ligand-induced KDELR receptor retrieval assays in Figure 1e. Figure 1—figure supplement 1. Abundance of ER resident proteins and chaperones in human cells and mouse brain. (a) The mean concentration of ER resident chaperones with the indicated ER retrieval sequence variant is plotted in the bar graph ([Itzhak et al., 2017]; [Itzhak et al., 2016]). […] Endogenous ER chaperone secretion was measured by western blotting after challenge with different retrieval signals, and plotted as a bar graph showing mean ± SEM (n = 3). […] (a) Distribution of human KDELR1 and (b) KDELR2 was measured in COS-7 cells in the absence (-ligand) or presence of K/R/H/A/DDEL retrieval signals (K/R/H/A/DDEL^sec). […] The fraction of KDEL receptor localised to the Golgi was measured before (no ligand) and after challenge with different retrieval signals as indicated. […]

[3] = tested on: endogenous KDEL receptor in COS-7 cells; experiment: ER retrieval assay, endogenous KDEL receptor redistribution; assay type: cell-based, African green monkey; conditions: COS-7 cells
Source text: as §1, with “1.” for “1. Abundance of ER resident proteins and chaperones in human cells and mouse brain. (a) The mean concentration of ER resident chaperones with the indicated ER retrieval sequence variant is plotted in the bar graph ([Itzhak et al., 2017]; [Itzhak et al., 2016]).”
To create KDELR1-GFP and KDELR2-GFP, the reading frames for Homo sapiens KDELR1 (Uniprot: P24390) and KDELR2 (Uniprot: P33947) were cloned into the pEF5/FRT low level mammalian expression vector with a C-terminal 20 amino acid linker made up of 5 copies of Gly-Ser-Ser-Ser followed by GFP. […]

[4] = target: T3, TAEKDEL retrieval signal peptide (BiP) (Homo sapiens); experiment: [3H]-peptide filter binding assay, pH 5.4
T3 chain: TAEKDEL

[5] = target: T4, TAEHDEL retrieval signal peptide; experiment: [3H]-peptide filter binding assay, pH 5.4
T4 chain: TAEHDEL

T1 sequence (P24390 whole entry): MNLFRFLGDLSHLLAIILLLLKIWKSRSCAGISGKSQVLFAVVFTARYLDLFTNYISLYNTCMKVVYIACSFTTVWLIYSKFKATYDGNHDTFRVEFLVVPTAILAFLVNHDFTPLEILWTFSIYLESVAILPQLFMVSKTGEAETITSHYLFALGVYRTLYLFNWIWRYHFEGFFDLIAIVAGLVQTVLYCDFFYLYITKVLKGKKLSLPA

pcDNA3.1 hGHss-mScarlet-S. cerevisiae BiP667-682 [FEHDEL]
ligand-induced receptor retrieval to the ER (in words) [1]: functional

TAEHDEL-NH2 [HDEL^CONH, TAEHDEL-CONH]
IC50 [2]: 1750 ± 170 µM

TAEKDEL
localisation of the mScarlet ligand (in words) [3]: retrieved to the ER

TAEKDEL-OH [KDEL, TAEKDEL]
IC50 [2]: 152 ± 21.7 µM

TAEKDEL-CONH [KDEL^CONH, C-amidated peptide variant]
binding of C-terminally amidated peptide to wild-type receptor (in words) ([2]; amidated C-terminus): completely abolished binding

B1: KDEL receptor 2 (protein)
chain: MNIFRLTGDLSHLAAIIILLLKIWKSRSCAGISGKSQLLFALVFTTRYLDLFTSFISLYNTSMKLIYIACSYATVYLIYMKFKATYDGNHDTFRVEFLIVPVGGLSFLVNHDFSPLAILWTFSIYLESVAILPQLFMISKTGEAETITTHYLFFLGLYRALYLVNWIWRYYFEGFFDLIAVVAGVVQTVLYCDFFYLYVTKVLKGKKLSLPA
Kd [4]: ~9.3 µM
Kd [5]: 0.52 µM

B2: KDEL receptor 2 (protein)
chain: MNIFRLTGDLSHLAAIIILLLKIWKSRSCAGISGKSQLLFALVFTTRYLDLFTSFISLYNTSMKLIYIACSYATVYLIYMKFKATYDGNHDTFRVEFLIVPVGGLSFLVNHDFSPLDILWTFSIYLESVAILPQLFMISKTGEAETITTHYLFFLGLYRALYLVNWIWRYYFEGFFDLIAVVAGVVQTVLYCDFFYLYVTKVLKGKKLSLPA
Kd [4]: 2.1 µM
Kd [5]: 0.52 µM

B3: KDEL receptor 2 (protein)
chain: MNIFRLTGDLSHLAAIIILLLKIWKSRSCAGISGKSQLLFALVFTTRYLDLFTSFISLYNTSMKLIYIACSYATVYLIYMKFKATYDGNHDTFRVEFLIVPVGGLSFLVNHDFSPLEILFTFSIYLESVAILPQLFMISKTGEAETITTHYLFFLGLYRALYLVNWIWRYYFEGFFDLIAVVAGVVQTVLYCDFFYLYVTKVLKGKKLSLPA
Kd [5]: 5.5 µM
